Activity calls are given as the source filed them. The calls are words filed in the database; no cut-off is given here.
Columns and labels:
[1] = target: ATP-dependent translocase ABCB1 (Homo sapiens, UniProt P08183); experiment: Activation of human P-gp ATPase in human Caco-2 cells at 100 uM; type: cell-based; conditions: caco-2, 100 µM
[2] = (§1) Apparent permeability from basolateral to apical side of human Caco-2 cell membrane; type: ADME, cell-based
[3] = Inhibition of human P-gp mediated [3H]vinblastine transport activity in human Caco-2 cells; type: cell-based; conditions: Caco-2, 2 h
[4] = (§2) Apparent permeability from apical to basolateral side of human Caco-2 cell membrane; type: ADME, cell-based
[5] = Activity at P-pg
[6] = test system: Caco-2; experiment: Ratio of permeability from […] side of human Caco-2 cell membrane; type: ADME, cell-based
[7] = test system: Caco-2; experiment: as §1; type: ADME, cell-based
[8] = test system: Caco-2; experiment: as §2; type: ADME, cell-based
[9] = test system: MCF7; experiment: Antiproliferative activity against adriamycin resistant human MCF7 cells after 24 hrs by MTT assay; type: functional, cell-based
[10] = target: T1, BCRP (ABCG2) (Homo sapiens, UniProt Q9UNQ0); experiment: Inhibition of human BCRP mediated [3H]mitoxantrone transport activity in human Caco-2 cells at 100 uM; type: cell-based; conditions: Caco-2, probe [3H]mitoxantrone
T1 sequence (Q9UNQ0 whole entry): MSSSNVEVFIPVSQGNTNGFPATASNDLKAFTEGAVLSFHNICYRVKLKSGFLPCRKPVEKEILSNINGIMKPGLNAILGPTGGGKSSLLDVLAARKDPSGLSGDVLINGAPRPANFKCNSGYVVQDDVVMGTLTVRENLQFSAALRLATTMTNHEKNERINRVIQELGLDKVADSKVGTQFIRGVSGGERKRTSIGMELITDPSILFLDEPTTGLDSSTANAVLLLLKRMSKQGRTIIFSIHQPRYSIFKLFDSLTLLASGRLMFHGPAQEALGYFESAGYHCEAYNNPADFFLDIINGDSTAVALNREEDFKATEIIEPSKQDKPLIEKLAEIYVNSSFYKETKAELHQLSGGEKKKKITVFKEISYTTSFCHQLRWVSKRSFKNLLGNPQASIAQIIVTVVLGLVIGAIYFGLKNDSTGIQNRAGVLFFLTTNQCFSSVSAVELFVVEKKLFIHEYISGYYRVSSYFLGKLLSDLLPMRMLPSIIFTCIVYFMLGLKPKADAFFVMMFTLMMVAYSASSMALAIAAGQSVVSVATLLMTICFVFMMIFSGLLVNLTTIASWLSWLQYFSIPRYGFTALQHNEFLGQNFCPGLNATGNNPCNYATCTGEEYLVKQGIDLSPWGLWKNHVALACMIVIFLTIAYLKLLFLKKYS

[11] = target: T2, Broad substrate specificity ATP-binding cassette transporter ABCG2 (Homo sapiens, UniProt Q9UNQ0); experiment: Inhibition of human BCRP mediated [3H]mitoxantrone transport activity in human Caco-2 cells; type: cell-based
T2 sequence (Q9UNQ0 whole entry): T1 sequence (Q9UNQ0 whole entry)

Sequence of ATP-dependent translocase ABCB1 (P08183 whole entry): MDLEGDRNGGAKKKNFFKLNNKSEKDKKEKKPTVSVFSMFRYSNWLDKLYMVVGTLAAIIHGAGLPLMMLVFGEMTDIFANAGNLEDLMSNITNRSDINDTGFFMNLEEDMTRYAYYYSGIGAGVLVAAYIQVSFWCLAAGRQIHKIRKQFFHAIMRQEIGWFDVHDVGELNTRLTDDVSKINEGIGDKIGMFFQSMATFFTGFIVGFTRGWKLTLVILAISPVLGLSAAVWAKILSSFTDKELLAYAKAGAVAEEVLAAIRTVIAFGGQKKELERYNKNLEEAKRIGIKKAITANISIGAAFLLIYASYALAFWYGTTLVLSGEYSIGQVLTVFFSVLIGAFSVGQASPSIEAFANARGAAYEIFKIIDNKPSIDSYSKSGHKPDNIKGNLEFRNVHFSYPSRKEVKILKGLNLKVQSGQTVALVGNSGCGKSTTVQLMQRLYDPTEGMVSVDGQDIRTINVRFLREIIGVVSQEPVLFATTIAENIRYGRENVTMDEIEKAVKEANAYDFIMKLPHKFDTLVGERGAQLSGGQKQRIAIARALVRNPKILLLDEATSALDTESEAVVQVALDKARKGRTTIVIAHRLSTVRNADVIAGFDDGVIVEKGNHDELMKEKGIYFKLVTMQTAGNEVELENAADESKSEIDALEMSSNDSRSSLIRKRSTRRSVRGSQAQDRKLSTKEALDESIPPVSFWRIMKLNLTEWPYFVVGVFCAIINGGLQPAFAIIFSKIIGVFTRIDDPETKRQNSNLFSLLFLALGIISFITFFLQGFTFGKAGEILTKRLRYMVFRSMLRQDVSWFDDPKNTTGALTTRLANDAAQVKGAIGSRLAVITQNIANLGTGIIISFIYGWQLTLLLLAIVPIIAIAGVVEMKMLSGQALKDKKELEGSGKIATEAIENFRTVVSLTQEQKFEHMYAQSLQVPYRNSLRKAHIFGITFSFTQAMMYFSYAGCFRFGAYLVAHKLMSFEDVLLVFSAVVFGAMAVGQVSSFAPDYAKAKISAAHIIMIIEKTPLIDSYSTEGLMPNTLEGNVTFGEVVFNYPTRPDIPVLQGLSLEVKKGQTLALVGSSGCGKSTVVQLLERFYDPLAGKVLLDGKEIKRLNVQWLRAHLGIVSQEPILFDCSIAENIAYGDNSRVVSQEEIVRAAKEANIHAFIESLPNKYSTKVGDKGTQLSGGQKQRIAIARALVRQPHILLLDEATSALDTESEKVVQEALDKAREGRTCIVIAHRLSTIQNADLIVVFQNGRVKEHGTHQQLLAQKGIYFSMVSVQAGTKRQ

SMILES | Activity [1] | Papp B→A [2] | EC50 [3] | Papp A→B [4] | EC50 [5] | Ratio [6] | Papp [7] | Papp [8] | Activity [9] | inhibition at 100 µM [10] | Activity [11]
COc1cc2c(cc1OC)CN(Cc1ccc3cc(O)ccc3c1)CC2 | 10% | 235 ×10⁻⁶ cm/s | 450 nM | 35.3 ×10⁻⁶ cm/s |  |  |  |  |  |  | 
COc1cc2c(cc1OC)CN(C(=O)c1ccc3cc(O)ccc3c1)CC2 | 40% | 190 ×10⁻⁶ cm/s | 650 nM | 25.1 ×10⁻⁶ cm/s |  |  |  |  |  |  | 
COc1cccc2c1CCCC2CCCN1CCN(C2CCCCC2)CC1 (stereo not drawn) |  |  |  |  | 550 nM |  |  |  |  |  | 
COc1cc2c(cc1OC)CN(C(=O)c1ccc3ccccc3c1)CC2 | 10% | 415 ×10⁻⁶ cm/s | 20000 nM | 32.4 ×10⁻⁶ cm/s |  |  |  |  |  |  | 
COc1cc2c(cc1OC)CN(Cc1ccc3ccccc3c1)CC2 | Not Active | 180 ×10⁻⁶ cm/s | 800 nM | 21.6 ×10⁻⁶ cm/s |  |  |  |  |  |  | 
COc1cc2c(cc1OC)CN(C(=O)c1ccc(-c3ccccc3)cc1)CC2 | 35% | 244 ×10⁻⁶ cm/s | 28000 nM | 60.1 ×10⁻⁶ cm/s |  |  |  |  |  |  | 
COc1cc2c(cc1OC)CN(Cc1ccccc1-c1ccccc1)CC2 | Not Active | 197 ×10⁻⁶ cm/s | 15000 nM | 21.6 ×10⁻⁶ cm/s |  |  |  |  |  |  | 
COc1ccc2cc(CN3CCc4cc(OC)c(OC)cc4C3)ccc2c1 | Not Active |  | 300 nM |  |  | 3.6 | 67.7 ×10⁻⁶ cm/s | 18.7 ×10⁻⁶ cm/s |  |  | 
COc1cc2c(cc1OC)CN(C(=O)c1ccc(-c3ccc(O)cc3)cc1)CC2 | Not Active | 277 ×10⁻⁶ cm/s | 3500 nM | 28 ×10⁻⁶ cm/s |  |  |  |  |  |  | 
COc1ccc2cc(C(=O)N3CCc4cc(OC)c(OC)cc4C3)ccc2c1 | Not Active | 123 ×10⁻⁶ cm/s | 18000 nM | 19.3 ×10⁻⁶ cm/s |  |  |  |  |  |  | 
COc1cc2c(cc1OC)CN(Cc1ccc(-c3ccc(O)cc3)cc1)CC2 | Not Active | 60.9 ×10⁻⁶ cm/s | 50 nM | 47.6 ×10⁻⁶ cm/s |  |  |  |  | inactive | 19% | 
COc1cc2c(cc1OC)CN(Cc1ccc(-c3ccccc3)cc1)CC2 | Not Active | 141 ×10⁻⁶ cm/s | 100 nM | 77.7 ×10⁻⁶ cm/s |  |  |  |  | inactive |  | 
COc1cc2c(cc1OC)CN(CC/C=C1\CCCc3c(OC)cccc31)CC2 | Not Active |  | 1640 nM |  |  |  |  |  |  |  | Active
COc1cc2c(cc1OC)CN(CCc1ccc(NC(=O)c3cccc4c(=O)c5cccc(OC)c5[nH]c34)cc1)CC2 | Not Active |  | 2000 nM |  |  |  |  |  |  |  | 
COc1cc2c(cc1OC)CN(Cc1cccc(-c3ccccc3)c1)CC2 | Not Active | 366 ×10⁻⁶ cm/s | 6500 nM | 30.1 ×10⁻⁶ cm/s |  |  |  |  |  |  | 
